Laboratory results from patent US6440446B1, “Agent for anti-osteoporosis” (Kabushiki Kaisha Hayashibara Seibutsu Kagaku Kenkyujo, priority 1998, dated 2002).
Like-named read-outs stand apart in the source and are kept apart here.

Tests used:
[1] = system: ovary-extracted mice (oophorectomized osteoporosis); experiment: Animal experiment: intravenous injection to ovary-extracted mice on low-calcium feed, dry weight of femurs and tibia microscopy; type: in vivo, female ddY mice; settings: for Bone content compared with the control groups (ovaries extracted, PBS): administered in place of trehalose, data not shown; for Dry weight of extracted tibia / Dry weight of extracted tibia / Body weight: tail vein, 5 ml/kg body weight/shot, once daily, five times a week
Protocol: An injection containing 10 w/w % trehalose, obtained by the later described Example 7, was diluted with a phosphate buffered saline, which had been filtered with a membrane filter having a pore size of 0.22 μm (hereinafter abbreviated as “PBS”) into a 0.1 w/w % or 1 w/w % trehalose solution. These solutions and the above injection were used for test samples. According to what is done conventionally, female ddY mice, 4-week-old, which had been grouped into 34 heads/group based on their body weight, were anesthetized with sodium pentobarbital, and extracted their ovaries. From the next day, the mice were injected from their tail veins with any one of the test samples at a dose of 5 ml/kg body weight/shot, once every day and five times a week. […] The feed used was a low-calcium feed for ease of making the difference of the bone content.
In parallel, the following control groups were provided and treated similarly as the group with trehalose: As control 1, a group in which mice were administered with the same amount of PBS as the test samples in place of them; and as control 2, a group in which mice, that were received with a laparotomy pseudo-operation and were not extracted their ovaries, were administered with the same amount of PBS as the test samples in place of them. Some of the mice administered with trehalose using one w/w t trehalose solution, and the mice in controls 1 and 2 as non-trehalose administration groups were extracted their tibias, followed by observing the tibias microscopically. The specimens for microscopic observation were prepared in the usual manner by immobilizing the extracted tibias with formalin solution, washed with water, delimed, split along with the long axis, and treated with protease K to remove bone marrow cells. The specimens of tibias were observed by a relatively-low vacuum electron-microscope under 24 magnifications, and photographed. The data are respectively in FIGS. 4 to 6. In these figures, white parts are the trabecula of cancellous bone. The osteoporosis occurred in mice extracted their ovaries is called oophorectomized osteoporosis and is an excellent model for postmenopausal osteoporosis as a geriatric osteoporosis.

[2] = system: ovary-extracted mice (oophorectomized osteoporosis); experiment: Animal experiment: oral administration to ovary-extracted mice on low-calcium feed, dry weight of femurs and tibia microscopy; type: in vivo, female ddY mice
Description: According to what is done conventionally, female ddY mice, 4-week-old, which had been grouped into 34 heads/group based on their body weight, were anesthetized with sodium pentobarbital, and extracted their ovaries. From the next day, the mice were orally administered with “TREHAOSE®”, a crystalline trehalose powder containing at least 98% trehalose, d.s.b., commercialized by Hayashibara Shoji, Inc, Okayama, Japan, which had been dissolved in distilled water, at a dose of 0.01, 0.1 or 1 g/kg body weight per shot once every day, five shots in a week. […] The feed used was a low-calcium feed for ease of making the difference of the bone content.
In parallel, the following control groups were provided and treated similarly as the group with trehalose: As control 1, a group in which mice were administered with the same amount of distilled water as the aqueous trehalose solution in place of the trehalose solution; as control 2, a group in which mice were administered with estradiol, as a therapeutic agent for osteoporosis, dissolved in the same amount of distilled water as the aqueous trehalose solution in place of the trehalose solution, at a dose of one mg/kg body weight/shot, two times a week; and as control 3, a group in which mice, which were received with a laparotomy pseudo-operation and not extracted their ovaries, were administered with the same amount of distilled water as the aqueous trehalose solution in place of the trehalose solution. Some of the mice administered with trehalose at a dose of 0.1 g/kg body weight/shot, and the mice in controls 1 and 3 as groups with no trehalose were extracted their tibias, followed by observing the tibias microscopically. The specimens for microscopic observation were prepared in the usual manner by immobilizing the extracted tibias with formalin solution, washed with water, delimed, split along with the long axis, and treated with protease K to remove bone marrow cells. The specimens of tibias were observed by a relatively-low vacuum electron-microscope under 24 magnifications, and photographed. The data are respectively in FIGS. 1 to 3. In these figures, white parts are the trabecula of cancellous bone. The osteoporosis occurred in the mice extracted their ovaries is called oophorectomized osteoporosis and is an excellent model for postmenopausal osteoporosis as a geriatric osteoporosis.

osteoclasts [3] = experiment: Osteoclast count in cultured bone marrow cells from tibias of orally treated mice (tartaric-acid-resistant acid phosphatase staining); type: cell-based, ddY mice; settings: bone marrow cells from mice given oral 0.1 g/kg body weight/shot; control 1 at least 3-times
Description: Similarly as above, the tibias were extracted from some mice, excluding the aforesaid mice which had been extracted their tibias, in the group with trehalose at a dose of 0.1 g/kg body weight/shot, and in the groups 1 and 3. From each tibia, bone marrow cells were collected in the usual manner and suspended in α-MEM medium, supplemented with 10 v/v % fetal calf serum, to give a cell density of 1.5×10^6 cells/ml. The resulting cell suspensions were respectively placed in 24-well plates in a volume of 0.5 ml/well. To each well was added 0.25 ml/well of a cell suspension with a cell density of 4×10^4 cells/ml of osteoblast-like cells suspended in a fresh preparation of the same medium as above. A solution of 4×10^9M 1α, 25-dihydroxy vitamin D3, dissolved in a fresh preparation of the same medium as above, was added to each well in a volume. of 0.25 ml/well. The resulting cell suspension mixtures were incubated in a 5 v/v % CO2 incubator at 37° C. for six days while replacing the media with a fresh preparation of α-MEM medium containing 1×10^9M 1α, 25-dihydroxy vitamin D3 and 10 v/v % fetal calf serum.
After completion of the culture, the supernatants were removed, and the cells in each well were fixed with formalin, and treated in the usual manner with “NAPHTHOL AS-MS PHOSPHATE” and “RED VIOLET LB SALT”, which are commercialized by Sigma Chemical Company, ST. […]

ddY mice = settings: mouse, in vivo
Protocol: An adequate amount of “TREHAOSE®”, a crystalline trehalose powder having at least 98% of trehalose, d.s.b., commercialized by Hayashibara Shoji, Inc., Okayama, Japan, was dissolved in physiological saline containing 5 w/w % gum arabic, and the solution was sterilized in the usual manner. The sterilized solution was injected intraperitoneally or orally administered using a gastric tube to ddY mice, 20-25 g weight, in a group of 10 heads, followed by the observation for seven days. As a result, independently of the administration routes, no mouse died even administered with the maximum dose, 15 g/kg body weight.

osteoclasts [4] = experiment: Osteoclast count in cultured bone marrow cells from tibias of intravenously treated mice (tartaric-acid-resistant acid phosphatase staining); type: cell-based, ddY mice; settings: bone marrow cells from mice given 10% trehalose solution, about 5 ml/kg body weight/shot; control 1 at least 3-times
Protocol: Similarly as above, the tibias were extracted from some mice, excluding the aforesaid mice which had been extracted their tibias, in the group with 10% trehalose solution at a dose of about 5 ml/kg body weight/shot, and in the groups 1 and 3. From each tibia, bone marrow cells were collected in the usual manner and suspended in α-MEM medium, supplemented with 10 v/v % fetal calf serum, to give a cell density of 1.5×10^6 cells/ml. The resulting cell suspensions were respectively placed in 24-well plates in a volume of 0.5 ml/well. To each well was added 0.25 ml/well of a cell suspension with a cell density of 4×10^4 cells/ml of osteoblast-like cells suspended in a fresh preparation of the same medium as above. A solution of 4×10^9M 1α, 25-dihydroxy vitamin D3, dissolved in a fresh preparation of the same medium as above, was added to each well in a volume of 0.25 ml/well. The resulting cell suspension mixtures were incubated in a 5 v/v % CO2 incubator at 37° C. for six days while replacing the media with a fresh preparation of α-MEM medium containing 1×10^9M 1α, 25-dihydroxy vitamin D3 and 10 v/v % fetal calf serum.
After completion of the culture, the supernatants were removed, and the cells in each well were fixed with formalin, and treated in the usual manner with “NAPHTHOL AS-MS PHOSPHATE” and “RED VIOLET LB”, which are commercialized by Sigma Chemical Company, ST. […]

[5] = oral 0.01 g/kg body weight/shot, once daily, five shots a week, ovary-extracted mice
[6] = oral 0.1 g/kg body weight/shot, once daily, five shots a week, ovary-extracted mice
[7] = oral 1 g/kg body weight/shot, once daily, five shots a week, ovary-extracted mice
[8] = one mg/kg body weight/shot, two times a week (control 2), ovary-extracted mice

## OC[C@H]1O[C@H](O[C@H]2[C@H](O)[C@@H](O)C(O)O[C@@H]2CO)[C@H](O)[C@@H](O)[C@@H]1O (mixture of isomers) [maltose, reference compound]
[1]
  Bone content compared with the control groups (ovaries extracted, PBS): no significant difference

## OC[C@H]1O[C@H](O[C@H]2O[C@H](CO)[C@@H](O)[C@H](O)[C@H]2O)[C@H](O)[C@@H](O)[C@@H]1O [Trehalose, trehalose]
[2]; [5]
  Dry weight of extracted tibia: 83.6 ± 7.0 mg
  Dry weight of extracted tibia / Body weight: 2.643 ± 0.195 mg/g
[2]; [6]
  Dry weight of extracted tibia: 85.0 ± 5.2 mg
  Dry weight of extracted tibia / Body weight: 2.723 ± 0.163 mg/g
[2]; oral 0.1 g/kg body weight/shot, ovary-extracted mice
  Reduction of trabecula in cancellous bone and expansion of the cavity of marrow (tibia, electron microscope x24, FIG. 1): clearly inhibited
[2]; [7]
  Dry weight of extracted tibia: 88.4 ± 6.4 mg
  Dry weight of extracted tibia / Body weight: 2.762 ± 0.172 mg/g
[2]; oral, observation throughout the experiment
  Abnormality induced by the administration: No abnormality
[2]; oral, ovary-extracted mice
  Dose at which the inhibitory effect on the lowering of the bone content was found: about 0.1 g/kg body weight/shot
Osteoclasts [3]
  Number of osteoclasts relative to control 2 (times higher): about 2 times
ddY mice; ip
  Death at the maximum dose: no mouse died
ddY mice; po
  Death at the maximum dose: no mouse died
[1]; 0.1 w/w % trehalose solution
  Dry weight of extracted tibia: 84.2 ± 6.9 mg
  Dry weight of extracted tibia / Body weight: 2.639 ± 0.213 mg/g
[1]; 1 w/w % trehalose solution
  Dry weight of extracted tibia: 86.9 ± 6.1 mg
  Dry weight of extracted tibia / Body weight: 2.716 ± 0.191 mg/g
[1]; 10 w/w % trehalose injection
  Dry weight of extracted tibia: 89.7 ± 5.5 mg
  Dry weight of extracted tibia / Body weight: 2.777 ± 0.170 mg/g
[1]; intravenous, about 5 ml/kg body weight/shot
  Trehalose concentration at which the inhibitory effect on the lowering of bone content was found: ~1 w/w %
[1]; intravenous, observation throughout the experiment
  Abnormality induced by the administration: No abnormality
[1]; one w/w % trehalose solution, intravenous 5 ml/kg body weight/shot
  Reduction of the trabecula in cancellous bone and expansion of the cavity of marrow (tibia, electron microscope x24, FIG. 4): clearly inhibited
Osteoclasts [4]
  Number of osteoclasts relative to control 2 (times higher): about 2 times

## OC[C@@H](O)[C@@H](O)[C@H](O)[C@@H](O)CO [sorbitol, reference compound]
[1]
  Bone content compared with the control groups (ovaries extracted, PBS): no significant difference

## C[C@]12CC[C@@H]3c4ccc(O)cc4CC[C@H]3[C@@H]1CC[C@@H]2O [Estradiol, estradiol, reference compound]
[2]; [8]
  Dry weight of extracted tibia: 119.9 ± 7.5 mg
  Dry weight of extracted tibia / Body weight: 3.520 ± 0.240 mg/g

## OC[C@@H](O)[C@H](O)[C@@H](O)CO [xylitol, reference compound]
[1]
  Bone content compared with the control groups (ovaries extracted, PBS): no significant difference

## OC[C@H]1O[C@@](CO)(O[C@H]2O[C@H](CO)[C@@H](O)[C@H](O)[C@H]2O)[C@@H](O)[C@@H]1O [sucrose, reference compound]
[2]; administered in place of trehalose, data not shown
  Bone content compared with the control group (ovaries extracted, distilled water): no significant difference
